Measured values published in US8710062B2, “Piperazinedione compounds” (Taipei Medical University, priority 2011, dated 2014).
Where a name gives a salt, the structure may show the parent alone.

Tests used:
[1] = tested on: 60 Human Cancer Cell Lines (NCI-60); assay: Broad-spectrum anticancer activity (NCI-60, SRB); type: cell-based; conditions: mean against leukemia, NSCLC, colon, CNS, melanoma, ovarian, renal, prostate and breast cancer, 48 h, read-out: mean pIC50 (converted)
Procedure: Broad-spectrum anticancer activities were conducted by NCI/NIH following standard protocols.
Human tumor cell lines were grown in RPMI 1640 medium containing 5% fetal bovine serum and 2 mM L-glutamine. For a typical screening experiment, cells were inoculated into 96-well microtiter plates in 100 μL at the plating densities ranging from 5,000 to 40,000 cells/well depending on the doubling time of individual cell lines. After cell inoculation, the microtiter plates were incubated at 37° C., 5% CO2, 95% air and 100% relative humidity for 24 h prior to addition of experimental drugs. […]
Following drug addition, the plates were incubated for an additional 48 h at 37° C., 5% CO2, 95% air, and […]. […] Bound stain was subsequently solubilized with 10 mM trizma base, and the absorbance was read on an automated plate reader at a wavelength of 515 nm. […] Using the seven absorbance measurements [time zero, (Tz), control growth, (C), and test growth in the presence of drug at the five concentration levels (Ti)], the percentage growth was calculated at each of the drug concentrations levels. Percentage growth inhibition was calculated as: [(Ti−Tz)/(C−Tz)]×100 for concentrations for which Ti>/=Tz [(Ti−Tz)/Tz]×100 for concentrations for which Ti<Tz.
Three dose response parameters were calculated for each experimental agent. […]

[2] = molecular target: SRPK1 (Homo sapiens, UniProt Q96SB4); assay: Kinome inhibition assay; type: biochemical
Procedure: (§1) Kinome inhibition studies were conducted following the procedures described in literature. […] In general, each purified kinase was incubated with its substrate in buffer (MOPS buffer or HEPES buffer) containing an essential metal co-enzyme or cofactor, antioxidant, and ATP (gamma-P^32 radio-labeled ATP or cold ATP). Compound 2 was co-incubated with the kinase solution thus obtained for 0.5-1 hr at 37° C. The reaction was stopped by boiling the reaction solution with an extra SDS solution. The phosphorylation level of the substrate was monitored ether by quantification of the radio-labeled substrate or by quantification of phosphor-substrate specific antibodies. In each study, a reference standard was run as an integral part to ensure the validity of the experimental results obtained. The table below includes the IC50 values obtained from this experiment.

[3] = molecular target: RET (Homo sapiens, UniProt P07949); assay: Kinome inhibition assay; type: biochemical
Procedure: as §1

[4] = molecular target: ERBB2 (HER2) (Homo sapiens, UniProt P04626); assay: Kinome inhibition assay; type: biochemical
Procedure: as §1

[5] = molecular target: FER (TYK3) (Homo sapiens, UniProt P16591); assay: Kinome inhibition assay; type: biochemical
Procedure: as §1

[6] = molecular target: SGK1 (Homo sapiens, UniProt O00141); assay: Kinome inhibition assay; type: biochemical
Procedure: as §1

[7] = molecular target: PIM1 (Homo sapiens, UniProt P11309); assay: Kinome inhibition assay; type: biochemical
Procedure: as §1

[8] = molecular target: MET (HGFR) (Homo sapiens, UniProt P08581); assay: Kinome inhibition assay; type: biochemical
Procedure: as §1

[9] = molecular target: SGK2 (Homo sapiens, UniProt Q9HBY8); assay: Kinome inhibition assay; type: biochemical
Procedure: as §1

[10] = molecular target: AURKA (Aurora-A) (Homo sapiens, UniProt O14965); assay: Kinome inhibition assay; type: biochemical
Procedure: as §1

[11] = molecular target: LMK1 (Homo sapiens, UniProt P53667); assay: Kinome inhibition assay; type: biochemical
Procedure: as §1

[12] = molecular target: ABL1 (Mus musculus, UniProt P00520); assay: Kinome inhibition assay; type: biochemical
Procedure: as §1

[13] = molecular target: GSK3B (Homo sapiens, UniProt P49841); assay: Kinome inhibition assay; type: biochemical
Procedure: as §1

[14] = molecular target: Insulin Receptor (Homo sapiens, UniProt P06213); assay: Kinome inhibition assay; type: biochemical
Procedure: as §1

[15] = molecular target: MAPK8 (JNK1) (Homo sapiens, UniProt P45983); assay: Kinome inhibition assay; type: biochemical
Procedure: as §1

[16] = molecular target: CAMK2D (KCC2D) (Homo sapiens, UniProt Q13557); assay: Kinome inhibition assay; type: biochemical
Procedure: as §1

[17] = molecular target: RP56KA5 (MSK1) (Homo sapiens, UniProt O75582); assay: Kinome inhibition assay; type: biochemical
Procedure: as §1

[18] = @ 10 μM, read-out: Single dose inhibition
[19] = @ 30 μM, read-out: Single dose inhibition

MET (HGFR), sequence (P08581 25-1390): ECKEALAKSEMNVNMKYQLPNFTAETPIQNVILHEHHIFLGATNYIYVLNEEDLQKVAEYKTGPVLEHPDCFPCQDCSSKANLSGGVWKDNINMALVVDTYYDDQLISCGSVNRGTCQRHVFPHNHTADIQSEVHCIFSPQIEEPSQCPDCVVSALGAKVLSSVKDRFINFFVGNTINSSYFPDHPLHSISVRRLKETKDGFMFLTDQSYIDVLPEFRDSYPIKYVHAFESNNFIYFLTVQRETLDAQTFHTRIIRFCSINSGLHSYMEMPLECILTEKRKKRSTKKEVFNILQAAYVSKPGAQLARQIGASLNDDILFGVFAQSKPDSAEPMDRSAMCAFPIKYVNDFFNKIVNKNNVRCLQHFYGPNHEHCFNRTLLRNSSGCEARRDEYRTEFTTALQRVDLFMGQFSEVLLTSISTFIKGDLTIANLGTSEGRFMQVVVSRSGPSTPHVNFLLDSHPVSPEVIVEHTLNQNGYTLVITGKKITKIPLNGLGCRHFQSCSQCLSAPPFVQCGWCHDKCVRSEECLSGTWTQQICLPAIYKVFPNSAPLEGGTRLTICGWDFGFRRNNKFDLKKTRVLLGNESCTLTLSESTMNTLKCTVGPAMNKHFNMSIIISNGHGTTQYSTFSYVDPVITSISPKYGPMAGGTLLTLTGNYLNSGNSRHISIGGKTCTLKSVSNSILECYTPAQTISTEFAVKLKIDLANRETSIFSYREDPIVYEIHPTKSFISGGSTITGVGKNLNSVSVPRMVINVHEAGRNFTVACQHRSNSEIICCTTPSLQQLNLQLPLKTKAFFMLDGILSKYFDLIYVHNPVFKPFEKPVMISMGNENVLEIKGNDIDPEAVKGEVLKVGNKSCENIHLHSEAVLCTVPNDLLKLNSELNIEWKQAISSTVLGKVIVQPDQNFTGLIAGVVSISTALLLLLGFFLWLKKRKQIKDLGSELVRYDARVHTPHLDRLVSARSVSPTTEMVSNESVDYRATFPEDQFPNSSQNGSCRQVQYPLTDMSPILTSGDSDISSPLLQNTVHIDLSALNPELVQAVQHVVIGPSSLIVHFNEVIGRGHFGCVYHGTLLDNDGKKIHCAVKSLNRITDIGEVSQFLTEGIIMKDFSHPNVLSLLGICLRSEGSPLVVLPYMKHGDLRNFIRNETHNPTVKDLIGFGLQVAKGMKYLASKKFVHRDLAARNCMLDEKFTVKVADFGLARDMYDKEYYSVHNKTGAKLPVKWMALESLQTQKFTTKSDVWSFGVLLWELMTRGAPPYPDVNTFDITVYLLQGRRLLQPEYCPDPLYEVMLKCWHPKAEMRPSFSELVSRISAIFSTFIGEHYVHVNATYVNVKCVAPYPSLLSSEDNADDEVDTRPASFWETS
RP56KA5 (MSK1), sequence (O75582 whole entry): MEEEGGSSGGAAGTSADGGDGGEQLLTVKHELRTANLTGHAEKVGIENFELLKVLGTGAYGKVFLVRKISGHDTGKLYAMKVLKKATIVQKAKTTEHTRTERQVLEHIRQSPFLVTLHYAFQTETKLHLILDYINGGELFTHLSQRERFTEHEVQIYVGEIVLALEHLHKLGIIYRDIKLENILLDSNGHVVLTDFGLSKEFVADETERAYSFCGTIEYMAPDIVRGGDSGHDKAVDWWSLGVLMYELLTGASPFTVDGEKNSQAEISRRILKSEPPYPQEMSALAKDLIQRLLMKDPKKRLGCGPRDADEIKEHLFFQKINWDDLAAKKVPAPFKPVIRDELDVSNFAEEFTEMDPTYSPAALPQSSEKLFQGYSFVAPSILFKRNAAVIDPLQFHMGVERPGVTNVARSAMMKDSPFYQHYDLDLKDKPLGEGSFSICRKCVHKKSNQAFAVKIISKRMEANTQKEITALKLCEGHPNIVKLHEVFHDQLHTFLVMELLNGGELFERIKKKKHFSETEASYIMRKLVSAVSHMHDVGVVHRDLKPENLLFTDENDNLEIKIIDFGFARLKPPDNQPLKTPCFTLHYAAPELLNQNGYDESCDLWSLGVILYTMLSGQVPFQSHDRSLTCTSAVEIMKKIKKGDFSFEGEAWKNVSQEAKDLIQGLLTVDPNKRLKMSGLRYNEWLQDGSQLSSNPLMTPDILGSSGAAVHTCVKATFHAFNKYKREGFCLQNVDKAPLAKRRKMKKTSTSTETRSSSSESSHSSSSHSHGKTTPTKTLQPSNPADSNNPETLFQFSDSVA
SGK1, sequence (O00141 whole entry): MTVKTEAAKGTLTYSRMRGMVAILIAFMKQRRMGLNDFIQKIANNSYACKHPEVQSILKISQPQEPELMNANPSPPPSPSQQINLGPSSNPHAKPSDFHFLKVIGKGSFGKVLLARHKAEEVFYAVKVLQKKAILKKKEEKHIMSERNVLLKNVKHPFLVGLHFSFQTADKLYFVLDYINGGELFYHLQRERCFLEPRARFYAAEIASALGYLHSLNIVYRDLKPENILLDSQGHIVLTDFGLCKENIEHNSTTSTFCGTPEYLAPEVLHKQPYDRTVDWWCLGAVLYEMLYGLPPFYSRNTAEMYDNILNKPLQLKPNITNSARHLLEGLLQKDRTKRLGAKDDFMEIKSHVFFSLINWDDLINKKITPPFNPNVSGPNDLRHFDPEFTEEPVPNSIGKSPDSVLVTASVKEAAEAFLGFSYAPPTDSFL
AURKA (Aurora-A), sequence (O14965 whole entry): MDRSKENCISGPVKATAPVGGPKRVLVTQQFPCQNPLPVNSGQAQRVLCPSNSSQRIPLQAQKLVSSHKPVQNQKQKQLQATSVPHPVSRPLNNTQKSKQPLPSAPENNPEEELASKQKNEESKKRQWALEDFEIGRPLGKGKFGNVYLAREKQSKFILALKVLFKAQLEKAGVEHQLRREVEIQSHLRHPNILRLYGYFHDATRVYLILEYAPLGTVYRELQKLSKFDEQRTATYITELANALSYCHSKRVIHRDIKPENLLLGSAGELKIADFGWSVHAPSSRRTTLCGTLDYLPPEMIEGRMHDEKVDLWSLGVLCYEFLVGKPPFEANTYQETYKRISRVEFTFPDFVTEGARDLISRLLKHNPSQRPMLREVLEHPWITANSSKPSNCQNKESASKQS
GSK3B, sequence (P49841 whole entry): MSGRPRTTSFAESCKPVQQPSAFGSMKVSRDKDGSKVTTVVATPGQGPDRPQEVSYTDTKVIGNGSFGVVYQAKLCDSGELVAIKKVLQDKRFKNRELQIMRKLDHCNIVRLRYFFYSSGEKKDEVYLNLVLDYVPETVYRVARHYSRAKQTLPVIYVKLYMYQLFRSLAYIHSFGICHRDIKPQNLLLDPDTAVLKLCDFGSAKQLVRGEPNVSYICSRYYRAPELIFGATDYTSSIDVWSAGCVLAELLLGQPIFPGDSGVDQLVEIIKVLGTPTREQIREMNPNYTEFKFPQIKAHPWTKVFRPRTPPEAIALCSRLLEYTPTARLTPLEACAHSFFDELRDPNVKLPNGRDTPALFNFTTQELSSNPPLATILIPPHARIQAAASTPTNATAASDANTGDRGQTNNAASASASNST
ERBB2 (HER2), sequence (P04626 23-1255): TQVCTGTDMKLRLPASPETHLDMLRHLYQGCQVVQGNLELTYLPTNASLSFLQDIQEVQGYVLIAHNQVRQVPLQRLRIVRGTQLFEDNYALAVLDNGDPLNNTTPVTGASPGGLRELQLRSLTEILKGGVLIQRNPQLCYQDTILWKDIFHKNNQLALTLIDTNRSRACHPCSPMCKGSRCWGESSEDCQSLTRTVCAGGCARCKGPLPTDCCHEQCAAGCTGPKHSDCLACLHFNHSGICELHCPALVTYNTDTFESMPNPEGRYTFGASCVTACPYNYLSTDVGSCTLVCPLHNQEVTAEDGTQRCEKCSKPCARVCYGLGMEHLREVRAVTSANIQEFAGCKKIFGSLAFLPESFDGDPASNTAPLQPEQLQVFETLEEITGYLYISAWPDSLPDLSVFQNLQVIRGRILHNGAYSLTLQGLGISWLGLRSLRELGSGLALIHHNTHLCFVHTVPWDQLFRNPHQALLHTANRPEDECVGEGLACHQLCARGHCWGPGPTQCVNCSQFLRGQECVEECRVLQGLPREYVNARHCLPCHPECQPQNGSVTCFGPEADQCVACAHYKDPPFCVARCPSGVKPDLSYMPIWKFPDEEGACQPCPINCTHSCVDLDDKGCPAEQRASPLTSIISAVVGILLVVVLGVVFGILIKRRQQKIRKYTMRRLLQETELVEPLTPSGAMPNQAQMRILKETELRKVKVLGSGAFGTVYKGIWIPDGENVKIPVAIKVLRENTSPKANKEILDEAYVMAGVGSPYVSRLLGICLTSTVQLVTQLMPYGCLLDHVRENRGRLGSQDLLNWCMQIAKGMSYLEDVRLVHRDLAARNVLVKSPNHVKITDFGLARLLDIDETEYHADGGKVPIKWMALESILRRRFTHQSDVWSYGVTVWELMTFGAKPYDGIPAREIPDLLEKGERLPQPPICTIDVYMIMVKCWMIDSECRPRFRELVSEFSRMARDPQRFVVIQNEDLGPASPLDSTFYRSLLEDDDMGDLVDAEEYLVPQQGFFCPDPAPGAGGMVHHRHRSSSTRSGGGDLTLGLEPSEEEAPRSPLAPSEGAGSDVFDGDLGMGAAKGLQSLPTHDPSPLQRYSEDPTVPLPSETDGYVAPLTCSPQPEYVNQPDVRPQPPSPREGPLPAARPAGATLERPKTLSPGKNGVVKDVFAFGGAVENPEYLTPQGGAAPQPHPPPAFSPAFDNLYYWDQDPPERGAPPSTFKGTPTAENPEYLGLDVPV
PIM1, sequence (P11309 whole entry): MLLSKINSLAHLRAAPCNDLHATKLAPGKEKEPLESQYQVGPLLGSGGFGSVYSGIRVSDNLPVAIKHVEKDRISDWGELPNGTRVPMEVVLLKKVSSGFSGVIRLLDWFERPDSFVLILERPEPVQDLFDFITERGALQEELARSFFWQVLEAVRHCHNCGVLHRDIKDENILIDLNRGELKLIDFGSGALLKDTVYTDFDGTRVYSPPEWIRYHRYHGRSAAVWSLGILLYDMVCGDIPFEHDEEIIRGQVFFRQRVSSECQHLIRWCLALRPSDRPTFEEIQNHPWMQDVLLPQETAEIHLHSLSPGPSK

Compound: O=c1[nH]/c(=C\c2ccc(OCc3ccncc3)cn2)c(=O)[nH]/c1=C\c1ccccc1 [Compound 2, 3-benzylidene-6-((5-(pyridin-4-ylmethoxy)pyridin-2-yl)methylene)piperazine-2,5-dione methanesulfonic acid salt]
- IC50 [1]: 52.5 nM
- inhibition at 10 µM [2, 18]: 61%
- IC50 ([2]; SRPK1, Human): 10.6 µM
- inhibition at 10 µM [3, 18]: 73%
- IC50 ([3]; RET, Human): 4.89 µM
- inhibition at 10 µM [4, 18]: 69%
- IC50 ([4]; ERBB2 (HER2), Human): 5.56 µM
- inhibition at 10 µM [5, 18]: 55%
- IC50 ([5]; FER (TYK3), Human): 7.23 µM
- inhibition at 10 µM [6, 18]: 83%
- IC50 ([6]; SGK1, Human): 2920 nM
- inhibition at 30 µM [7, 19]: 98%
- IC50 ([7]; PIM1, Human): 9.52 µM
- inhibition at 30 µM [8, 19]: 79%
- IC50 ([8]; MET (HGFR), Human): 12.3 µM
- inhibition at 10 µM [9, 18]: 78%
- IC50 ([9]; SGK2, Human): 3.55 µM
- inhibition at 30 µM [10, 19]: 73%
- IC50 ([10]; AURKA (Aurora-A), Human): 13.7 µM
- inhibition at 10 µM [11, 18]: 68%
- IC50 ([11]; LMK1, Human): 5.8 µM
- inhibition at 10 µM [12, 18]: 90%
- IC50 ([12]; ABL1, Mouse): 3.17 µM
- inhibition at 30 µM [13, 19]: 69%
- IC50 ([13]; GSK3B, Human): 10.9 µM
- inhibition at 3 µM ([14]; @ 3 μM, read-out: Single dose inhibition): 70%
- IC50 ([14]; Insulin Receptor, Human): 1830 nM
- inhibition at 10 µM [15, 18]: 74%
- IC50 ([15]; MAPK8 (JNK1), Human): 4.79 µM
- inhibition at 10 µM [16, 18]: 70%
- IC50 ([16]; CAMK2D (KCC2D), Human): 7.39 µM
- inhibition at 10 µM [17, 18]: 53%
- IC50 ([17]; RP56KA5 (MSK1), Human): 7.88 µM
